Experimental data: patent US20240400560A1, “BICYCLIC HETEROCYCLIC DERIVATIVE HAVING VIRAL GROWTH INHIBITORY ACTIVITY AND PHARMACEUTICAL COMPOSITION CONTAINING SAME” (Shionogi & Co., Ltd., priority 2021, published 2024)
Like-named read-outs stand apart in the source and are kept apart here.

Experiments:
SARS-CoV-2 3CL protease = SARS-CoV-2 3CL protease (Severe acute respiratory syndrome coronavirus 2, UniProt P0DTD1); assay: Inhibitory activity test against SARS-CoV-2 3CL proteases; assay type: biochemical
SARS-CoV-2 = assay: Inhibitory activity of cytopathic effect (CPE) in HEK293T/ACE2-TMPRSS2 cells; assay type: cell-based; conditions: Severe acute respiratory syndrome coronavirus 2, HEK-293T, 72 h
[1] = read-out: IC50 (50% SARS-CoV-2 3CL protease inhibitory concentration)
[2] = HEK293T/ACE2-TMPRSS2 cells, cultured 3 days, CellTiter-Glo 2.0 luminescence, read-out: EC50 (50% SARS-CoV-2 infected cell death inhibitory concentration)
[3] = 50% SARS-CoV-2 infected cell death inhibitory concentration, HEK293T/ACE2-TMPRSS2 cells, CellTiter-Glo 2.0 after 3 days culture, read-out: EC50

Row | SMILES | IC50 (SARS-CoV-2 3CL protease; [1]) [nM] | EC50 (SARS-CoV-2; [2]) [nM] | EC50 (SARS-CoV-2; [3]) [nM] | IC50 (SARS-CoV-2 3CL protease; IC50 (50% SARS-CoV-2 3CL protease inhibitory concentration)) [nM] | EC50 (SARS-CoV-2; read-out: EC50 (50% SARS-CoV-2 infected cell death inhibitory concentration)) [nM]
1 | COc1nc(N2CCC(F)(F)C2)cc2c1c(=O)n(-c1cncc(C)c1)c(=O)n2-c1ccc(F)c(Cl)c1 [Compound I-0954] | < 100 | < 100 |  |  | 
2 | O=c1c2c(=O)n(-c3cnc4cc(F)ccn34)c(=O)n(-c3ccc(F)c(Cl)c3)c2cc2n1CC[C@@H]1CCCN21 [Compound I-0955] | 3.1 |  | 540 |  | 
3 | COc1nc(N2CC[C@@H](O)C2)cc2c1c(=O)n(-c1cncc(OCF)c1)c(=O)n2-c1ccc(F)c(Cl)c1 [Compound I-0956] | < 100 | < 100 |  |  | 
4 | COc1nc(N2CC[C@@H](O)C2)cc2c1c(=O)n(-c1cncc(C#N)c1)c(=O)n2-c1ccc(F)c(Cl)c1 [Compound I-0957] | 3.2 |  | 8.14 |  | 
5 | COc1nc(N2CC[C@@H](C#N)C2)cc2c1c(=O)n(-c1cnc3cc(F)ccn13)c(=O)n2-c1ccc(F)c(C(F)F)c1 [Compound I-0958] | < 100 | < 100 |  |  | 
6 | COc1nc(N2CC[C@@H](C#N)C2)cc2c1c(=O)n(-c1cnc3cc(F)ccn13)c(=O)n2-c1ccc(F)c(F)c1 [Compound I-0959] | < 100 | < 100 |  |  | 
7 | COc1nc(N2C[C@@H]3C[C@H]2CO3)cc2c1c(=O)n(-c1cnc3cc(F)ccn13)c(=O)n2-c1ccc(F)c(C(F)F)c1 [Compound I-0960] | < 100 | < 100 |  |  | 
8 | COc1nc(N2C[C@@H](F)[C@@H](F)C2)cc2c1c(=O)n(-c1cnc3cc(F)ccn13)c(=O)n2-c1ccc(F)c(C(F)F)c1 [Compound I-0961] | 3.4 |  | 5.82 |  | 
9 | Cl.[2H]C([2H])([2H])O[C@@H]1CCN(c2cc3c(c(OC)n2)c(=O)n(-c2cnc4cc(F)c(F)cn24)c(=O)n3-c2ccc(F)c(Cl)c2)C1 [Compound I-0962] | < 100 | < 100 |  |  | 
10 | [2H]C([2H])([2H])O[C@@H]1CCN(c2cc3c(c(OC)n2)c(=O)n(-c2cncc(OCF)c2)c(=O)n3-c2ccc(F)c(Cl)c2)C1 [Compound I-0963] | < 100 | < 100 |  |  | 
11 | COc1nc(N2CC[C@@H](O)C2)cc2c1c(=O)n(-c1cncc(C(F)F)c1)c(=O)n2-c1ccc(F)c(Cl)c1 [Compound I-0964] | < 100 | < 100 |  |  | 
12 | COc1nc(N2CC[C@@H](O)C2)cc2c1c(=O)n(-c1cncc(F)c1)c(=O)n2-c1ccc(F)c(Cl)c1 [Compound I-0965] | < 100 | < 100 |  |  | 
13 | CCNc1cc2c(c(OC)n1)c(=O)n(-c1cncc(Cl)c1)c(=O)n2-c1ccc(F)c(Cl)c1 [Compound I-0966] | 3.8 |  | 9.01 |  | 
14 | COc1nc(N2CC[C@@H](O)C2)cc2c1c(=O)n(-c1cnc3cc(F)c(F)cn13)c(=O)n2-c1ccc(F)c(Cl)c1 [Compound I-0967] | < 100 | < 100 |  |  | 
15 | COc1nc(N2CC[C@@H](O)C2)cc2c1c(=O)n(-c1cncc(OC(F)F)c1)c(=O)n2-c1ccc(F)c(Cl)c1 [Compound I-0968] | < 100 | < 100 |  |  | 
16 | COc1nc(N2CC[C@@H](CO)C2)cc2c1c(=O)n(-c1cncc(Cl)c1)c(=O)n2-c1ccc(F)c(Cl)c1 [Compound I-0969] | < 100 | < 100 |  |  | 
17 | [2H]C([2H])([2H])O[C@@H]1CCN(c2cc3c(c(OC)n2)c(=O)n(-c2cncc(C(F)F)c2)c(=O)n3-c2ccc(F)c(Cl)c2)C1 [Compound I-0970] | < 100 | < 100 |  |  | 
18 | [2H]C([2H])([2H])O[C@@H]1CCN(c2cc3c(c(OC)n2)c(=O)n(-c2cncc(OC(F)F)c2)c(=O)n3-c2ccc(F)c(Cl)c2)C1 [Compound I-0971] | < 100 | < 100 |  |  | 
19 | [2H]C([2H])([2H])O[C@@H]1CCN(c2cc3c(c(OC)n2)c(=O)n(-c2cc(C)cnn2)c(=O)n3-c2ccc(F)c(Cl)c2)C1 [Compound I-0972] | < 100 | < 100 |  |  | 
20 | [2H]C([2H])([2H])O[C@@H]1CCN(c2cc3c(c(OC)n2)c(=O)n(-c2cncc(Cl)c2)c(=O)n3-c2ccc(F)c(F)c2)C1 [Compound I-0973] | < 100 | < 100 |  |  | 
21 | COc1nc(N2CCC(S(C)(=O)=O)C2)cc2c1c(=O)n(-c1cncc(Cl)c1)c(=O)n2-c1ccc(F)c(Cl)c1 (stereo not shown) [Compound I-0974] | < 100 | < 100 |  |  | 
22 | COc1nc(N2CCC(n3cccn3)C2)cc2c1c(=O)n(-c1cnc3cc(F)ccn13)c(=O)n2-c1ccc(F)c(Cl)c1 (stereo not shown) [Compound I-0975] | < 100 | < 100 |  |  | 
23 | COc1nc(C(C)C)cc2c1c(=O)n(-c1cnc3cc(F)ccn13)c(=O)n2-c1ccc(F)c(Cl)c1 [Compound I-0976] | < 100 | < 100 |  |  | 
24 | COc1nc(N2CCC(F)(F)C2)cc2c1c(=O)n(-c1cncc(C#N)c1)c(=O)n2-c1ccc(F)c(Cl)c1 [Compound I-0977] | < 100 | < 100 |  |  | 
25 | COc1nc(N2C[C@@H]3C[C@H]2CO3)cc2c1c(=O)n(-c1cnc3cc(F)ccn13)c(=O)n2-c1ccc(F)c(F)c1 [Compound I-0978] | 4.8 |  | 11.8 |  | 

Row | SMILES | IC50 (SARS-CoV-2 3CL protease; [1]) [nM] | EC50 (SARS-CoV-2; [2]) [nM] | EC50 (SARS-CoV-2; [3]) [nM] | IC50 (SARS-CoV-2 3CL protease; IC50 (50% SARS-CoV-2 3CL protease inhibitory concentration)) [nM] | EC50 (SARS-CoV-2; read-out: EC50 (50% SARS-CoV-2 infected cell death inhibitory concentration)) [nM]
26 | COc1nc(N2CC[C@@H](O)C2)cc2c1c(=O)n(-c1cncc(Cl)c1)c(=O)n2-c1ccc(F)c(F)c1 [Compound I-0979] | < 100 | < 100 |  |  | 
27 | COc1nc(N2CC[C@@H](C#N)C2)cc2c1c(=O)n(-c1cncc(OCF)c1)c(=O)n2-c1ccc(F)c(F)c1 [Compound I-0980] | < 100 | < 100 |  |  | 
28 | [2H]C([2H])([2H])O[C@@H]1CCN(c2cc3c(c(OC)n2)c(=O)n(-c2cnc4cc(F)ccn24)c(=O)n3-c2ccc(F)c(C(F)F)c2)C1 [Compound I-0981] | < 100 | < 100 |  |  | 
29 | COc1nc(N2CC[C@@H](F)C2)cc2c1c(=O)n(-c1cnc3cc(F)ccn13)c(=O)n2-c1ccc(F)c(F)c1 [Compound I-0982] | < 100 | < 100 |  |  | 
30 | COc1nc(N2CC[C@@H](C(F)F)C2)cc2c1c(=O)n(-c1cnc3cc(F)ccn13)c(=O)n2-c1ccc(F)c(Cl)c1 [Compound I-0983] | < 100 | < 100 |  |  | 
31 | COc1nc(N2CC[C@@H](C#N)C2)cc2c1c(=O)n(-c1cncc(C#N)c1)c(=O)n2-c1ccc(F)c(F)c1 [Compound I-0984] | < 100 | < 100 |  |  | 
32 | COc1nc(N2C[C@H]3COC[C@H]3C2)cc2c1c(=O)n(-c1cnc3cc(F)ccn13)c(=O)n2-c1ccc(F)c(Cl)c1 [Compound I-0985] | < 100 | < 100 |  |  | 
33 | COc1nc(N(C)C)cc2c1c(=O)n(-c1cnc3cc(F)ccn13)c(=O)n2-c1ccc(F)c(Cl)c1 [Compound I-0986] | 6.5 |  | 7.1 |  | 
34 | COc1nc(N2CC(F)C2)cc2c1c(=O)n(-c1cnc3cc(F)ccn13)c(=O)n2-c1ccc(F)c(Cl)c1 [Compound I-0987] | < 100 | < 100 |  |  | 
35 | O=c1c2c(=O)n(-c3cnc4cc(F)ccn34)c(=O)n(-c3ccc(F)c(Cl)c3)c2cc2n1C[C@@H]1CCCCN21 [Compound I-0988] | < 100 | 100 to 1000 |  |  | 
36 | COc1nc(N2C[C@H]3C[C@@H]2CO3)cc2c1c(=O)n(-c1cnc3cc(F)ccn13)c(=O)n2-c1ccc(F)c(Cl)c1 [Compound I-0989] | < 100 | < 100 |  |  | 
37 | COc1nc(N2CC[C@@H](C#N)C2)cc2c1c(=O)n(-c1cncc(F)c1)c(=O)n2-c1ccc(F)c(F)c1 [Compound I-0990] | 6.8 |  | 8.89 |  | 
38 | COc1nc(N2C[C@@H]3C[C@H]2CO3)cc2c1c(=O)n(-c1cncc(C#N)c1)c(=O)n2-c1ccc(F)c(F)c1 [Compound I-0991] | < 100 | < 100 |  |  | 
39 | COc1nc(N2CC[C@@H](O)C2)cc2c1c(=O)n(-c1cnc3ccc(C#N)cn13)c(=O)n2-c1ccc(F)c(Cl)c1 [Compound I-0992] | < 100 | < 100 |  |  | 
40 | CCN(C)c1cc2c(c(OC)n1)c(=O)n(-c1cnc3cc(F)ccn13)c(=O)n2-c1ccc(F)c(Cl)c1 [Compound I-0993] | < 100 | < 100 |  |  | 
41 | COc1nc(N2CC[C@@H](NC(C)=O)C2)cc2c1c(=O)n(-c1cncc(Cl)c1)c(=O)n2-c1ccc(F)c(Cl)c1 [Compound I-0994] | < 100 | < 100 |  |  | 
42 | COc1nc(N2CC[C@@H](C#N)C2)cc2c1c(=O)n(-c1cncc(OC(F)F)c1)c(=O)n2-c1ccc(F)c(F)c1 [Compound I-0995] | < 100 | < 100 |  |  | 
43 | CCNc1cc2c(c(OC)n1)c(=O)n(-c1cnc3cc(F)ccn13)c(=O)n2-c1ccc(F)c(Cl)c1 [Compound I-0996] | < 100 | < 100 |  |  | 
44 | COc1nc(N2CCC(F)(F)C2)cc2c1c(=O)n(-c1cncc(C)n1)c(=O)n2-c1ccc(F)c(Cl)c1 [Compound I-0997] | < 100 | < 100 |  |  | 
45 | COc1nc(N2CCC(F)(F)C2)cc2c1c(=O)n(-c1cncc(F)c1)c(=O)n2-c1ccc(F)c(Cl)c1 [Compound I-0998] | < 100 | < 100 |  |  | 
46 | C=Cc1cc2c(c(OC)n1)c(=O)n(-c1cnc3cc(F)ccn13)c(=O)n2-c1ccc(F)c(Cl)c1 [Compound I-0999] | < 100 | 100 to 1000 |  |  | 
47 | CNC(=O)[C@@H]1CCN(c2cc3c(c(OC)n2)c(=O)n(-c2cnc4cc(F)ccn24)c(=O)n3-c2ccc(F)c(Cl)c2)C1 [Compound I-1000] | < 100 | < 100 |  |  | 
48 | COc1nc(N2[C@@H]3CC[C@H]2COC3)cc2c1c(=O)n(-c1cnc3cc(F)ccn13)c(=O)n2-c1ccc(F)c(Cl)c1 [Compound I-1001] |  |  |  | < 100 | < 100
49 | COc1nc(N2CCC2)cc2c1c(=O)n(-c1cnc3cc(F)ccn13)c(=O)n2-c1ccc(F)c(Cl)c1 [Compound I-1002] | < 100 | < 100 |  |  | 
50 | COc1nc(N2CCC(F)(F)C2)cc2c1c(=O)n(-c1cc(C)cnn1)c(=O)n2-c1ccc(F)c(Cl)c1 [Compound I-1003] | < 100 | < 100 |  |  | 
